From paper PMC9652372, “Glycolytic flux control by drugging phosphoglycolate phosphatase” (Nature Communications, 2022)
Converted amounts (≈) assume the structure as drawn. “And” between values parts separate entries of the source, which are not always exact repeats. Equal entries are not always repeated.

Experiments:
murine PGP-WT = biological target: T1, murine PGP-WT (Mus musculus, UniProt Q8CHP8); experiment: Isothermal titration calorimetry, PGP-WT; type: binding; conditions: ITC; for Kd: murine PGP
T1 construct: His6 (N, cleaved yes); made in house; host or cells: Escherichia coli BL21 (DE3), pETM11, co-expressed with groES-groEL-tig
T1 sequence (Q8CHP8 1-321): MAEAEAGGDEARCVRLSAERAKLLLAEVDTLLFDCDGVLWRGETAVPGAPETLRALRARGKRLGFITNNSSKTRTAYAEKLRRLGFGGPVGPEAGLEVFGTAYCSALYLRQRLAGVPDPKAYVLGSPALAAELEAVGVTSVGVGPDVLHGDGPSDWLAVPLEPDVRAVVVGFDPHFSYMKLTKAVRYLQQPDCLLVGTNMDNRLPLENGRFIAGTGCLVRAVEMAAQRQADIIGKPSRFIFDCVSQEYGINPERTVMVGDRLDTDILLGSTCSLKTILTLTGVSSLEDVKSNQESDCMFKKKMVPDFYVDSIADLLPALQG
Description: Purified murine PGP-WT or PGP-P127E was dialyzed overnight against ITC buffer (30 mM HEPES, 30 mM NaCl, 5 mM MgCl2, 1 mM tris(2-carboxyethyl)phosphine/TCEP; pH 7.5). All calorimetric measurements were performed at 25 °C on an ITC200 microcalorimeter (GE Healthcare). Experiments were conducted with a fixed concentration of 2% DMSO. […] To reduce the effects of ligand leakage from the syringe during baseline equilibration, the heat release of a single 1.2 μL injection was recorded prior to the actual titration experiment, and discarded during data analysis with Nitpic 2.0.7[45]. To determine background heats of dilution, control experiments of ligand into buffer, buffer into protein and buffer into buffer titrations were performed.

murine PGP [1] = biological target: T2, murine PGP (Mus musculus, UniProt Q8CHP8); experiment: IC50 determination, murine PGP, pNPP dephosphorylation
T2 sequence (Q8CHP8 1-321): T1 sequence (Q8CHP8 1-321)

murine PDXP = biological target: T3, murine PDXP (Mus musculus, UniProt P60487); experiment: PDXP activity towards pyridoxal 5'-phosphate (PLP); conditions: phosphatase PDXP; species M.m.; substrate PLP; n.s. = no significant inhibition detectable
T3 sequence (P60487 1-292): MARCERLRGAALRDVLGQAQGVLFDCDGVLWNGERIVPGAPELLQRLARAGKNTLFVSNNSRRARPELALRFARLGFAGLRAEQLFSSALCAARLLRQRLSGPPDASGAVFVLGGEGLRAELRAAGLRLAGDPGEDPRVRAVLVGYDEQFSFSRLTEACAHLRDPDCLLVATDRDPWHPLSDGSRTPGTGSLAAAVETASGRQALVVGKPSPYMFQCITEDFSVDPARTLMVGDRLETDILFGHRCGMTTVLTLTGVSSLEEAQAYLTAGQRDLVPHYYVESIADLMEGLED

PGP^WT = biological target: T4, PGP^WT (Mus musculus, UniProt Q8CHP8); experiment: Differential scanning fluorimetry (Thermofluor); type: binding
T4 construct: His6 (N, cleaved yes); made in house; host or cells: Escherichia coli BL21 (DE3), pETM11, co-expressed with groES-groEL-tig
T4 sequence (Q8CHP8 1-321): T1 sequence (Q8CHP8 1-321)

physchem = conditions: organic solvent or mixture
murine PDXP/PGP hybrid = biological target: T5, murine PDXP/PGP hybrid (Mus musculus, UniProt P60487+Q8CHP8); experiment: PG dephosphorylation by PDXP/PGP hybrid protein; type: biochemical
T5 construct: consisting of the PGP cap domain (amino acids 114–233) fused to the PDXP core domain; His6 (N, cleaved yes); made in house; host or cells: Escherichia coli BL21 (DE3), pETM11
T5 sequence (P60487 1-100): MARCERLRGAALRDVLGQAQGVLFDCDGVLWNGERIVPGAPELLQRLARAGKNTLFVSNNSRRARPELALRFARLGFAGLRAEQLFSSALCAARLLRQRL
T5 sequence (Q8CHP8 114-233): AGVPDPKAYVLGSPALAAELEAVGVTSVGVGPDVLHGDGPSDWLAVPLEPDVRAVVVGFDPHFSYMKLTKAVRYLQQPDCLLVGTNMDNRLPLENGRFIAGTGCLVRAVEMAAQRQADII
T5 sequence (P60487 208-292): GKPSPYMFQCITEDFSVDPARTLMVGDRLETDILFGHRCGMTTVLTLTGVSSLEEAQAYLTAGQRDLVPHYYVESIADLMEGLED
Description: After centrifugation, cells were resuspended in TNM-2 (100 mM triethanolamine, 500 mM NaCl, 20 mM imidazole, 5 mM MgCl2; pH 7.4). Cleared supernatants were loaded on a HisTrap HP nickel sepharose column in TNM-3 (50 mM triethanolamine, 500 mM NaCl, 20 mM imidazole, 5 mM MgCl2; pH 7.4), and His6-tagged proteins were eluted using a linear gradient of up to 50% TNM-4 (50 mM triethanolamine; 250 mM NaCl; 500 mM imidazole; 5 mM MgCl2; pH 7.4). Peak fractions were pooled, the His6-tag was cleaved, and untagged PDXP or PDXP/PGP was isolated, concentrated and further purified by size exclusion chromatography in TNM-5 (50 mM triethanolamine; 250 mM NaCl; 5 mM MgCl2; pH 7.4). […] Data were analyzed with GraphPad Prism 7.04.

PGP = biological target: T6, PGP (Mus musculus, UniProt Q8CHP8); experiment: Steady state kinetics of PG dephosphorylation in presence of CP1-3
T6 sequence (Q8CHP8 1-321): T1 sequence (Q8CHP8 1-321)

murine PGP [2] = biological target: T2, murine PGP; experiment: biochemical
[3] = PG dephosphorylation, increasing CP concentrations

SMILES: O=C(O)c1cc(Nc2ccccc2C(=O)O)nc(Nc2ccccc2C(=O)O)n1 [CP3]
- Kd (murine PGP-WT; 25 °C, mean ± S.E.M., n = 3): 430 nM
- Kd (murine PGP-WT; single replicates): 500 nM and 320 nM and 460 nM
- dG (murine PGP-WT; single replicates): -8.598 kcal/mol and -8.862 kcal/mol and -8.651 kcal/mol
- dH (murine PGP-WT; single replicates): -6.466 kcal/mol and -5.835 kcal/mol and -6.568 kcal/mol
- dS (murine PGP-WT; single replicates): 7.151 cal/Mol*K and 10.151 cal/Mol*K and 6.986 cal/Mol*K
- IC50 (murine PGP [1]): 13500 ± 2510 nM
- remaining activity at 10 µM (murine PGP [1]; read-out: M.m PGP on pNPP, activity, control = 100.00, CP log[M] -5): 45.5%
- remaining activity at 5 µM (murine PGP [1]; read-out: M.m PGP on pNPP, activity, control = 100.00, CP log[M] -5.30103): 61.5%
- remaining activity at […] (murine PGP [1]; read-out: M.m PGP on pNPP, activity, control = 100.00, CP log[M] -5.60206): 74.3%
- remaining activity at 80 µM (murine PGP [1]; read-out: M.m PGP on pNPP, activity, control = 100.00, Log CP3 [M] -4.09691): 12.6%
- remaining activity at 40 µM (murine PGP [1]; read-out: M.m PGP on pNPP, activity, control = 100.00, Log CP3 [M] -4.39794): 20.3%
- remaining activity at 20 µM (murine PGP [1]; read-out: M.m PGP on pNPP, activity, control = 100.00, Log CP3 [M] -4.69897): 33.2%
- remaining activity at 1.25 µM (murine PGP [1]; read-out: M.m PGP on pNPP, activity, control = 100.00, Log CP3 [M] -5.90309): 85.2%
- remaining activity at 0.625 µM (murine PGP [1]; read-out: M.m PGP on pNPP, activity, control = 100.00, Log CP3 [M] -6.20412): 88.3%
- remaining activity at 0.3125 µM (murine PGP [1]; read-out: M.m PGP on pNPP, activity, control = 100.00, Log CP3 [M] -6.50515): 93.8%
- remaining activity at 0.15625 µM (murine PGP [1]; read-out: M.m PGP on pNPP, activity, control = 100.00, Log CP3 [M] -6.80618): 98.4%
- remaining activity at 0.078125 µM (murine PGP [1]; read-out: M.m PGP on pNPP, activity, control = 100.00, Log CP3 [M] -7.10721): 101%
- IC50 (murine PDXP): n.s.
- TM (PGP^WT; Inhibitor 0.244141 µM): 66.6 °C
- TM (PGP^WT; Inhibitor 0.488281 µM): 66.7 °C
- TM (PGP^WT; Inhibitor 0.976562 µM): 67.0 °C
- TM (PGP^WT; Inhibitor 1.95312 µM): 67.3 °C
- TM (PGP^WT; Inhibitor 3.90625 µM): 68.1 °C
- TM (PGP^WT; Inhibitor 7.8125 µM): 69.0 °C
- TM (PGP^WT; Inhibitor 15.625 µM): 70.4 °C
- TM (PGP^WT; Inhibitor 31.25 µM): 71.2 °C
- TM (PGP^WT; Inhibitor 62.5 µM): 72.1 °C
- TM (PGP^WT; Inhibitor 125 µM): 72.8 °C
- TM (PGP^WT; Inhibitor 250 µM): 73.4 °C
- solubility (physchem): 50 mM (≈ 19.7 mg/mL)
- remaining activity at 16 µM (murine PDXP/PGP hybrid; activity, control = 100, CP log[M] -4.79588): 1.8%
- remaining activity at 4 µM (murine PDXP/PGP hybrid; activity, control = 100, CP log[M] -5.39794): 13.3%
- remaining activity at 1 µM (murine PDXP/PGP hybrid; activity, control = 100, CP log[M] -6): 41.6%
- remaining activity at 0.5 µM (murine PDXP/PGP hybrid; activity, control = 100, CP log[M] -6.30103): 58.4%
- remaining activity at […] (murine PDXP/PGP hybrid; activity, control = 100, CP log[M] -6.60206): 73.5%
- remaining activity at 0.125 µM (murine PDXP/PGP hybrid; activity, control = 100, CP log[M] -6.90309): 84.1%
- remaining activity at 0.0625 µM (murine PDXP/PGP hybrid; activity, control = 100, CP log[M] -7.20412): 89.4%
- remaining activity at 0.015625 µM (murine PDXP/PGP hybrid; activity, control = 100, CP log[M] -7.80618): 103%
- IC50 (murine PDXP/PGP hybrid; phosphatase PDXP/PGP, species M.m., substrate PG): 970 ± 20 nM
- mode of PGP inhibition (PGP): competitive inhibitors
- PGP activity (PGP; 1 µM CP3, PG 50 µM): 2.463 µmol Pi/min/mg and 2.403 µmol Pi/min/mg and 1.502 µmol Pi/min/mg
- PGP activity (PGP; 1 µM CP3, PG 100 µM): 5.226 µmol Pi/min/mg and 4.205 µmol Pi/min/mg
- PGP activity (PGP; 1 µM CP3, PG 200 µM): 10.3316 µmol Pi/min/mg and 9.671 µmol Pi/min/mg and 8.89 µmol Pi/min/mg
- PGP activity (PGP; 1 µM CP3, PG 300 µM): 14.7802 µmol Pi/min/mg and 14.2395 µmol Pi/min/mg and 12.9778 µmol Pi/min/mg
- PGP activity (PGP; 1 µM CP3, PG 400 µM): 17.1234 µmol Pi/min/mg and 17.6642 µmol Pi/min/mg and 16.5827 µmol Pi/min/mg
- PGP activity (PGP; 1 µM CP3, PG 500 µM): 20.9086 µmol Pi/min/mg and 20.1877 µmol Pi/min/mg and 22.1704 µmol Pi/min/mg
- PGP activity (PGP; 1 µM CP3, PG 600 µM): 22.1704 µmol Pi/min/mg and 21.0889 µmol Pi/min/mg and 23.7926 µmol Pi/min/mg
- PGP activity (PGP; 1 µM CP3, PG 700 µM): 23.4321 µmol Pi/min/mg and 22.7111 µmol Pi/min/mg and 25.4148 µmol Pi/min/mg
- PGP activity (PGP; 1 µM CP3, PG 800 µM): 25.7753 µmol Pi/min/mg and 22.1704 µmol Pi/min/mg and 24.3333 µmol Pi/min/mg
- PGP activity (PGP; 2 µM CP3, PG 100 µM): 4.445 µmol Pi/min/mg and 3.364 µmol Pi/min/mg and 4.265 µmol Pi/min/mg
- PGP activity (PGP; 2 µM CP3, PG 200 µM): 8.469 µmol Pi/min/mg and 7.448 µmol Pi/min/mg
- PGP activity (PGP; 2 µM CP3, PG 300 µM): 12.437 µmol Pi/min/mg and 10.4543 µmol Pi/min/mg and 11.8963 µmol Pi/min/mg
- PGP activity (PGP; 2 µM CP3, PG 400 µM): 15.6815 µmol Pi/min/mg and 12.7975 µmol Pi/min/mg and 14.7802 µmol Pi/min/mg
- PGP activity (PGP; 2 µM CP3, PG 500 µM): 18.7457 µmol Pi/min/mg and 18.5654 µmol Pi/min/mg and 18.3852 µmol Pi/min/mg
- PGP activity (PGP; 2 µM CP3, PG 600 µM): 19.6469 µmol Pi/min/mg and 20.7284 µmol Pi/min/mg
- PGP activity (PGP; 2 µM CP3, PG 700 µM): 20.9086 µmol Pi/min/mg and 21.8099 µmol Pi/min/mg and 21.0889 µmol Pi/min/mg
- PGP activity (PGP; 2 µM CP3, PG 800 µM): 21.4494 µmol Pi/min/mg and 22.3506 µmol Pi/min/mg and 22.7111 µmol Pi/min/mg
- PGP activity (PGP; 4 µM CP3, PG 100 µM): 3.4839 µmol Pi/min/mg and 2.463 µmol Pi/min/mg and 3.424 µmol Pi/min/mg
- PGP activity (PGP; 4 µM CP3, PG 200 µM): 6.547 µmol Pi/min/mg and 5.706 µmol Pi/min/mg and 6.728 µmol Pi/min/mg
- PGP activity (PGP; 4 µM CP3, PG 300 µM): 9.553 µmol Pi/min/mg and 7.39 µmol Pi/min/mg and 12.7975 µmol Pi/min/mg
- PGP activity (PGP; 4 µM CP3, PG 400 µM): 12.437 µmol Pi/min/mg and 10.4543 µmol Pi/min/mg and 15.321 µmol Pi/min/mg
- PGP activity (PGP; 4 µM CP3, PG 500 µM): 15.6815 µmol Pi/min/mg and 15.5012 µmol Pi/min/mg and 17.484 µmol Pi/min/mg
- PGP activity (PGP; 4 µM CP3, PG 600 µM): 16.763 µmol Pi/min/mg and 19.1062 µmol Pi/min/mg
- PGP activity (PGP; 4 µM CP3, PG 700 µM): 16.763 µmol Pi/min/mg and 18.0247 µmol Pi/min/mg and 21.8099 µmol Pi/min/mg
- PGP activity (PGP; 4 µM CP3, PG 800 µM): 17.3037 µmol Pi/min/mg and 18.2049 µmol Pi/min/mg and 22.5309 µmol Pi/min/mg
- vmax (PGP; CP 1.0 µM): 50.8 ± 4.1 µmol/min/mg
- vmax (PGP; CP 2.0 µM): 54.7 ± 4.9 µmol/min/mg
- vmax (PGP; CP 4.0 µM): 54.3 ± 11.9 µmol/min/mg
- effect on vmax (reduction) (PGP; [3]): without affecting vmax
- increase of KM (PGP; [3]): ~ 3 fold
- IC50 (murine PGP [2]): 810 nM and 1000 nM
